In patent US10584115B2, “Substituted pyridine and pyrazine BMI-1 inhibitors” (PTC Therapeutics, Inc., priority 2013, dated 2020) one finds EC50 data, which are given here for 36 molecules.

Where only a bound is given, the exact number is not on record here.

The experiment has as its system Bmi-1 protein. The experiment in a line: Sandwich ELISA Assay (Bmi-1 protein level in HT-1080 cells after compound treatment). Format: cell-based. The conditions noted are these: Table 1, Bmi-1 sandwich ELISA, read-out: ELISA EC50 value for Bmi-1 protein. In a few lines: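 HT-1080 cells exposed to compounds for 40–48 h at 37 °C (0.5% DMSO final), then lysed. Bmi-1 in lysates measured by sandwich ELISA (mouse monoclonal capture, rabbit anti-Bmi-1 detection, HRP anti-rabbit, TMB), read at OD450 with OD570 reference against a recombinant Bmi-1 standard curve (0–8000 pg/mL).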
For orientation: In an ELISA, binding on a coated surface is turned into a signal by an enzyme label.
What is called EC50 is the concentration at which the effect is half-maximal. As for `Cc1nc2ncc(Cl)cc2n1-c1cncc(Nc2ccc(OC(F)F)cc2)n1` [compound 540, 6-(6-chloro-2-methyl-1H-imidazo[4,5-b]pyridin-1-yl)-N-[4-(difluoromethoxy)phenyl]pyrazin-2-amine], the EC50 is under 1 nM.

As to `CCc1nn2ccccc2c1-c1cncc(Nc2ccccc2)n1` [compound 631, 6-(2-ethylpyrazolo[1,5-a]pyridin-3-yl)-N-phenylpyrazin-2-amine], the EC50 lay in the range of 100 to 3000 nM. Turning to `Cc1nc2cc(F)c(F)cc2n1-c1cc(C#N)cc(Nc2ccc(C(F)(F)F)c(F)c2)n1` [compound 359, 2-(5,6-difluoro-2-methyl-1H-benzimidazol-1-yl)-6-{[3-fluoro-4-(trifluoromethyl)phenyl]amino}pyridine-4-carbonitrile], the concentration for a half-maximal effect (EC50) fell in the range of 100 to 3000 nM. Turning to `Fc1ccc2nc(C(F)(F)F)c(-c3cncc(Nc4ccc(C(F)(F)F)cc4)n3)n2c1` [Cpd 58, 6-[6-fluoro-2-(trifluoromethyl)imidazo[1,2-a]pyridin-3-yl]-N-[4-(trifluoromethyl)phenyl]pyrazin-2-amine], the 50% effective concentration (EC50) was in the range of 1 to 10 nM. In the case of `CCc1nn2ccccc2c1-c1cncc(Nc2cccc(Cl)c2)n1` [compound 643, N-(3-chlorophenyl)-6-(2-ethylpyrazolo[1,5-a]pyridin-3-yl)pyrazin-2-amine], the EC50 is 100 to 3000 nM. With `COCc1nc2ccccc2n1-c1cncc(Nc2ccc(C(F)(F)F)cc2)n1` [compound 65, 6-[2-(methoxymethyl)-1H-benzimidazol-1-yl]-N-[4-(trifluoromethyl)phenyl]pyrazin-2-amine], the half-maximal effective concentration (EC50) fell in the range of 100 to 3000 nM. Consider `COc1ccc2nc(C(F)(F)F)c(-c3cncc(Nc4ccccc4)n3)n2c1` [Cpd 678, 6-[6-methoxy-2-(trifluoromethyl)imidazo[1,2-a]pyridin-3-yl]-N-phenylpyrazin-2-amine], for which the EC50 was in the range of 10 to 100 nM.

On to `Cc1nc2cc(Cl)ccc2n1-c1cncc(Nc2ccc(OC(F)(F)F)cc2)n1` [compound 223, 6-(5-chloro-2-methyl-1H-benzimidazol-1-yl)-N-[4-(trifluoromethoxy)phenyl]pyrazin-2-amine], for which the EC50 was in the range of 100 to 3000 nM.

With `Cc1nc2cc(Cl)ccc2n1-c1cncc(Nc2ccc(C(F)(F)F)cc2)n1` [compound 239, 6-(5-chloro-2-methyl-1H-benzimidazol-1-yl)-N-[4-(trifluoromethyl)phenyl]pyrazin-2-amine], the half-maximal effective concentration (EC50) was in the range of 10 to 100 nM. The value for `N#Cc1cc(Nc2ccc(OC(F)(F)F)cc2)nc(-c2c(C(F)(F)F)nc3ccc(F)cn23)c1` [compound 222, 2-[6-fluoro-2-(trifluoromethyl)imidazo[1,2-a]pyridin-3-yl]-6-{[4-(trifluoromethoxy)phenyl]amino}pyridine-4-carbonitrile] was 10 to 100 nM. The value for `N#Cc1cc(Nc2ccc(C(F)(F)F)cc2)nc(-c2c(CO)nc3ccc(F)cn23)c1` [compound 383, 2-[6-fluoro-2-(hydroxymethyl)imidazo[1,2-a]pyridin-3-yl]-6-{[4-(trifluoromethyl)phenyl]amino}pyridine-4-carbonitrile] was 10 to 100 nM; that for `CCc1nc2ccccc2n1-c1cncc(Nc2ccc(C(F)(F)F)cc2)n1` [compound 51, 6-(2-ethyl-1H-benzimidazol-1-yl)-N-[4-(trifluoromethyl)phenyl]pyrazin-2-amine] was 1 to 10 nM; that for `Cc1nc2ccccc2n1-c1cncc(Nc2ccc(OC(C)C)cc2)n1` [compound 660, 6-(2-methyl-1H-benzimidazol-1-yl)-N-[4-(propan-2-yloxy)phenyl]pyrazin-2-amine] was 10 to 100 nM.

On to `Fc1ccc(Nc2cncc(-c3c(C(F)(F)F)nc4ccccn34)n2)cc1F` [Cpd 26, N-(3,4-difluorophenyl)-6-[2-(trifluoromethyl)imidazo[1,2-a]pyridin-3-yl]pyrazin-2-amine], for which the EC50 was in the range of 100 to 3000 nM.

In the case of `FC(F)(F)c1ccc(Nc2cncc(-n3c(Cl)nc4ccccc43)n2)cc1` [compound 134, 6-(2-chloro-1H-benzimidazol-1-yl)-N-[4-(trifluoromethyl)phenyl]pyrazin-2-amine], the concentration for a half-maximal effect (EC50) lay within 100 to 3000 nM. Regarding `CCc1nn2ccccc2c1-c1cncc(Nc2ccc(OC(F)(F)F)cc2)n1` [compound 523, 6-(2-ethylpyrazolo[1,5-a]pyridin-3-yl)-N-[4-(trifluoromethoxy)phenyl]pyrazin-2-amine], the EC50 was in the range of 10 to 100 nM. On to `Cc1nc2ccccc2n1-c1cc(N)c(F)c(Nc2ccc(C(F)(F)F)cc2)n1` [compound 515, 3-fluoro-6-(2-methyl-1H-benzimidazol-1-yl)-N^2-[4-(trifluoromethyl)phenyl]pyridine-2,4-diamine], for which the EC50 lay within 10 to 100 nM. For the molecule `CCc1nc2ncccc2n1-c1cccc(Nc2ccc(C(F)(F)F)cc2)n1` [compound 140, 6-(2-ethyl-1H-imidazo[4,5-b]pyridin-1-yl)-N-[4-(trifluoromethyl)phenyl]pyridin-2-amine], the EC50 lay within 10 to 100 nM. Consider `Cc1nc2c(F)cc(F)cc2n1-c1cncc(Nc2ccc(C(F)(F)F)cc2)n1` [compound 417, 6-(4,6-difluoro-2-methyl-1H-benzimidazol-1-yl)-N-[4-(trifluoromethyl)phenyl]pyrazin-2-amine], for which the EC50 fell in the range of 10 to 100 nM.

Consider `Cc1nc2ccccc2n1-c1cncc(Nc2nc3ccccc3s2)n1` [compound 420, N-[6-(2-methyl-1H-benzimidazol-1-yl)pyrazin-2-yl]-1,3-benzothiazol-2-amine], for which the concentration giving a half-maximal response (EC50) was in the range of 1 to 10 nM. As to `Cc1nc2cc(F)c(F)cc2n1-c1cc(C#N)cc(Nc2ccc(OC(F)F)c(F)c2)n1` [compound 326, 2-{[4-(difluoromethoxy)-3-fluorophenyl]amino}-6-(5,6-difluoro-2-methyl-1H-benzimidazol-1-yl)pyridine-4-carbonitrile], the EC50 lay in the range of 10 to 100 nM. In the case of `CCc1nc2ncc(Cl)cc2n1-c1cncc(Nc2ccc(OC(F)(F)F)cc2)n1` [compound 548, 6-(6-chloro-2-ethyl-1H-imidazo[4,5-b]pyridin-1-yl)-N-[4-(trifluoromethoxy)phenyl]pyrazin-2-amine], the EC50 lay in the range of 10 to 100 nM. Consider `N#Cc1cc(Nc2ccc(OC(F)F)cc2)nc(-c2c(C(F)(F)F)nc3ccc(F)cn23)c1` [compound 273, 2-{[4-(difluoromethoxy)phenyl]amino}-6-[6-fluoro-2-(trifluoromethyl)imidazo[1,2-a]pyridin-3-yl]pyridine-4-carbonitrile], for which the concentration giving a half-maximal response (EC50) fell in the range of 1 to 10 nM.

As for `Fc1cc2nc(C3CC3)n(-c3cncc(Nc4ccc(C(F)(F)F)cc4)n3)c2cc1F` [compound 182, 6-(2-cyclopropyl-5,6-difluoro-1H-benzimidazol-1-yl)-N-[4-(trifluoromethyl)phenyl]pyrazin-2-amine], the concentration for a half-maximal effect (EC50) was in the range of 10 to 100 nM. Consider `Cc1nc2ccc(Br)cc2n1-c1cncc(Nc2ccc(C(F)(F)F)cc2)n1` [compound 388, 6-(6-bromo-2-methyl-1H-benzimidazol-1-yl)-N-[4-(trifluoromethyl)phenyl]pyrazin-2-amine], for which the EC50 is 10 to 100 nM. Regarding `Cc1nc2ccc(Cl)cc2n1-c1cncc(Nc2ccc(C(F)(F)F)cc2)n1` [compound 240, 6-(6-chloro-2-methyl-1H-benzimidazol-1-yl)-N-[4-(trifluoromethyl)phenyl]pyrazin-2-amine], the concentration for a half-maximal effect (EC50) fell in the range of 10 to 100 nM. `CCc1nc2ncc(Cl)cc2n1-c1cncc(Nc2ccc(OC(F)F)cc2)n1` [compound 544, 6-(6-chloro-2-ethyl-1H-imidazo[4,5-b]pyridin-1-yl)-N-[4-(difluoromethoxy)phenyl]pyrazin-2-amine]: the 50% effective concentration (EC50) was under 1 nM. Consider `CCc1nc2ncccc2n1-c1cncc(Nc2ccc(C(F)(F)F)cc2)n1` [compound 83, 6-(2-ethyl-1H-imidazo[4,5-b]pyridin-1-yl)-N-[4-(trifluoromethyl)phenyl]pyrazin-2-amine], for which the EC50 is 10 to 100 nM. As for `Cc1nc2ccccc2n1-c1cncc(Nc2ccc(CO)cc2)n1` [compound 152, (4-{[6-(2-methyl-1H-benzimidazol-1-yl)pyrazin-2-yl]amino}phenyl)methanol], the EC50 was 10 to 100 nM.

Take `OCc1nc2ccccn2c1-c1cncc(Nc2ccc(OC(F)F)cc2)n1` [compound 215, [3-(6-{[4-(difluoromethoxy)phenyl]amino}pyrazin-2-yl)imidazo[1,2-a]pyridin-2-yl]methanol]: the concentration giving a half-maximal response (EC50) lay in the range of 1 to 10 nM.

Consider `CSc1cc(Nc2ccc(C(F)(F)F)cc2)nc(-c2c(C(F)(F)F)nc3ccccn23)c1` [compound 173, 4-(methylsulfanyl)-6-[2-(trifluoromethyl)imidazo[1,2-a]pyridin-3-yl]-N-[4-(trifluoromethyl)phenyl]pyridin-2-amine], for which the EC50 lay within 100 to 3000 nM. Take `Cc1nn(C)c(C)c1-c1cncc(Nc2ccc(OC(F)(F)F)cc2)n1` [compound 105, N-[4-(trifluoromethoxy)phenyl]-6-(1,3,5-trimethyl-1H-pyrazol-4-yl)pyrazin-2-amine]: the EC50 was 10 to 100 nM. The value for `Cc1nc2cc(F)c(F)cc2n1-c1cccc(Nc2ccc(Cl)cc2)n1` [compound 615, N-(4-chlorophenyl)-6-(5,6-difluoro-2-methyl-1H-benzimidazol-1-yl)pyridin-2-amine] was 100 to 3000 nM; that for `Cc1nc2ccc(O)cn2c1-c1cncc(Nc2ccc(C(F)(F)F)cc2)n1` [compound 378, 2-methyl-3-(6-{[4-(trifluoromethyl)phenyl]amino}pyrazin-2-yl)imidazo[1,2-a]pyridin-6-ol] was 10 to 100 nM. On to `N#Cc1ccc(Nc2cncc(-c3c(C(F)(F)F)nc4ccc(F)cn34)n2)cc1` [compound 668, 4-({6-[6-fluoro-2-(trifluoromethyl)imidazo[1,2-a]pyridin-3-yl]pyrazin-2-yl}amino)benzonitrile], for which the 50% effective concentration (EC50) is 100 to 3000 nM. `Cc1c(-c2cncc(Nc3ccc(C(F)(F)F)cc3)n2)c(C(F)(F)F)nn1C` [compound 276, 6-[1,5-dimethyl-3-(trifluoromethyl)-1H-pyrazol-4-yl]-N-[4-(trifluoromethyl)phenyl]pyrazin-2-amine]: the concentration giving a half-maximal response (EC50) fell in the range of 10 to 100 nM.
